# What was measured:
# HBMEC cells = test: Real-time PCR for CDH5 in HBMEC cells; type: cell-based, human; conditions: 1 μM BIA, up to 48 hours
# G34 GBM cells = test: Real-time PCR in G34-PCDH neurosphere GBM cells; type: cell-based, human; conditions: BIA 2 μM, 24 hours
# Procedure: Real-time PCR: Total RNA from GBM and HCMEC/D3 cells was obtained and processed as indicated above. For cDNA generation, we used 1 μg of RNA and processed with the iScript™ cDNA synthesis kit (BioRad), following the protocol indicated by the provider. All primers were designed using NCBI Primer-Blast tool. Detailed information on primer sequences can be found in FIG. 25 (Supplementary Table 3). Gene expression levels were quantified using PowerUp SYBR Green Master Mix (Applied Biosciences) on QuantStudio 6 Pro System (Applied Biosciences), normalized by housekeeping gene GAPDH expression and represented as relative expression using comparative ΔΔCT method.
# HCMEC/D3 cells [1] = test: Cell cycle analysis via flow cytometry of HCMEC/D3; type: cell-based, human; conditions: BIA 0.5 μM or 1 μM
# Procedure: Flow cytometry for cell cycle, DNA damage and apoptosis assays: For cell cycle analysis, 100,000 HCMEC/D3 cells were plated in 6-well plates and treated with indicated concentrations of BIA or control for 48 hours. Then, cells were washed twice with PBS and fixed/permeabilized with 5 mL of cold 70% ethanol added dropped-wise while vortexing at low speed. Cells were stored for 1 day at −20 degrees Celsius, washed three times with PBS and treated with 20 μg/mL RNAse I (Thermo Fisher Scientific) and stained with anti-Ki-67 FITC-conjugated (1:1000) (BD Biosystems) and 1.5 μM propidium iodide (Thermo Fisher Scientific). Amer 30 minutes of incubation in the dark, cells were analyzed using a CytoFLEX system (Beckman Coulter). 50,000 events were counted, and data was analyzed using the CytoFLEX system software (Beckman Coulter).
# HCMEC/D3 cells [2] = test: Secretome (Luminex cytokine) quantification; type: cell-based, human; conditions: BIA 48 hours
# Procedure: Secretome quantification: For cytokine analysis of brain endothelial cells after BIA exposure, HCMEC/D3 cells were plated at a density of 500,000 cells/well in a 6-well plate. Cells were treated with indicated doses of BIA or DMSO for 48 hours. Then, 1 mL of media was collected and processed for cytokine quantification in a Luminex platform (Thermo Fischer Scientific) following the provider's instructions.
# [3] = system: G9-PCDH, G34-PCDH and GL-261 GBM tumors; test: ICP-MS platinum quantification in GBM tumor-bearing mice after BIA and cisplatin; type: in vivo; conditions: G9-PCDH xenograft, increasing BIA doses
# Procedure: (§1) In vivo studies: For intra-cranial tumor implantation, GBM neuro-spheres were grown to 70% confluency before dissociated into single cell on the day of surgery. 50,000 cells were resuspended in 3 μl of sterile PBS and injected intracranially into the striatum (2 mm right hemisphere, 1 mm frontal, 3 mm depth from bregma) of mice under anesthesia and stereo-tactically fixed. Tumors were left to grow for approximately 2-3 weeks, depending the cell line. Animals were randomized to treatment groups. BIA injections consisted of 20 mg/kg (i.p.), except if indicated otherwise. PPRX-1701 was administered at 20 mg/kg (i.v.) via lateral tail-vein. Cisplatin injections were performed at 5 mg/kg (maximum tolerated dose, i.p.). All GBM tumor murine studies involved continuous condition and weight assessments, with endpoint considered when 20% of weight loss and/or moderate-to-high grimace scale and neurological symptoms were observed.
# (§2) ICP-MS for platinum quantification: Mice treated with cisplatin after BIA administration were euthanized, intra-cardially perfused with PBS and tissue harvested to be stored at −80 degrees Celsius. Tissue was processed and platinum (Pt195) was quantified using an Agilent 7900 ICP-MS, as previously described.^42
# [4] = system: G9-PCDH, G34-PCDH and GL-261 murine GBM tumors; test: as above; type: in vivo
# Procedure: as §1, §2
# [5] = system: G9-PCDH and G34-PCDH xenograft murine models; test: Immunofluorescence of brain tissue from GBM xenograft models; type: in vivo, mice; conditions: 24 hours after 20 mg/kg BIA
# Procedure: For mouse brain tissue staining, brains were collected from CO2 euthanized and PBS perfused tumor-bearing mice, and fixed in 10% formalin for 72 hours on rotation in the cold. Then, brains were transferred to 30% sucrose for 3 days at 4 degrees Celsius under rotation. Before cryo-sectioning, brains were frozen at −80 degree Celsius for more than 30 minutes, embedded in Optimal Cutting Temperature (OCT) compound (Fisher) and transferred to −27 degrees Celsius to a cryostat (Leica CM1950) for sectioning (20 μm thickness). Sections were placed on slides and staining followed as indicated above. All pictures were taken using a LSM 880 Zeiss confocal microscope.
# as §1
# G9 tumors = test: Platinum uptake by ICP-MS in G9 tumor-bearing mice (Example 2); type: in vivo; conditions: BiA 20 mg/kg tail vein, cisplatin 5 mg/kg 24 hours later
# Procedure: Inductively Coupled Plasma-Mass Spectrometry (ICP-MS): For platinum quantitation, ICP-MS was performed in an Agilent 7900 ICP mass spectrometer and controlled using the ICP-MS MassHunter software. Machine calibration was performed using a tuning solution (Agilent), containing 1 ng/mL (1 ppb) of Li, Co, Y, Ce and Ti trace-metals. In each experiment, the desired internal standard was added to each sample and standard solution. Standard curves were prepared with potassium tetrachloroplatinate (II) (Thermo Fisher) by generating dilutions of 0.1, 1, 10, 50, 100 and 1000 parts per billion (ppb). Isotopes selected for platinum detection were Pt^195. Performance reports were registered daily for calibration and accuracy records.
# For the assessment of the effects of indirubin on intratumoral accumulation of platinum, G9 tumors were implanted intracranially according to the protocols described above. Cisplatin (5 mg/kg) was injected via the tail vein 24 hours post-BIA injection (20 mg/kg vial tail vein), and accumulation measured after a further 5 hours.
# [6] = system: human brain microvascular endothelial cell monolayers; test: RNA sequencing of HBMEC monolayers (Example 3); type: cell-based; conditions: BiA 1 μM, 24 hours
# Procedure: RNA Sequencing (RNAseq): RNA sequencing was performed by the Dana Faber molecular biology core according to their standard methods. RNA was prepared from human brain microvascular endothelial cell monolayers after 24 hours treatment with BiA. EXAMPLE 1 EFFECT OF INDIRUBIN ON THE BLOOD-TUMOR BARRIER (BTB)
# In order to assess changes in gene expression profiles induced by alterations to barrier functions induced by indirubin, RNA sequencing was performed RNA prepared from human brain microvascular endothelial cell monolayers after 24 hours treatment with BiA. HBMEC monolayers were treated with BiA (1 μM) for 24 hours and gene expression profiles compared with untreated controls.
compound,measurement,setting,value
"CC(=O)ON=C1C(=C2C(=O)Nc3cc(Br)ccc32)Nc2ccccc21 [BIA, 6-bromoindirubin acetoxime]",CDH5 expression at the transcriptional level,HBMEC cells,decreased expression
same,CDH5 expression,G34 GBM cells,reduced the expression
same,WNT7B and S1PR3 expression,G34 GBM cells,diminishment
same,cell cycle states,HCMEC/D3 cells [1],slight decreased G1 and M states
same,CCL2 secretion,HCMEC/D3 cells [2],significant downregulation
same,"cytokine secretion profile (TNF-α, IFNg, IL-17A, IL6, IL-1b, prolactin, CCL8, CCL4)",HCMEC/D3 cells [2],pro-inflammatory secretion profile
same,BIA dose showing significant cisplatin accumulation in the tumor,[3],above 10 mg/kg
same,platinum uptake in contralateral healthy brain regions,[4]; cisplatin 5 mg/kg 24 hours after BIA,no significant difference of uptake
same,cisplatin (platinum) accumulation in tumor after BIA pre-treatment,"[4]; cisplatin 5 mg/kg 24 hours after BIA, 5 hours circulation",significant cisplatin intra-tumoral accumulation
same,platinum accumulation in peripheral tissues such as heart or liver,[4]; cisplatin 24 hours after BIA,no difference in platinum accumulation
same,CDH5 expression in contra-lateral healthy brain regions,[5],did not observe significant changes in expression of CDH5
same,CDH5 in CD31+ endothelial cells and CDH5+ tumor cells,[5],striking decrease of CDH5
same,Claudin-5 staining in tissue,[5]; G9-PCDH xenograft,no visible differences in Claudin-5 staining
same,ZO-1 expression in tissue,[5]; G9-PCDH xenograft,mild reductions of ZO-1 expression
same,in vivo uptake of platinum in healthy mouse brain,G9 tumors,not in healthy mouse brain
same,in vivo uptake of platinum in tumor tissue,G9 tumors; measured after 5 hours,significantly increases the in vivo uptake of platinum
same,"gene expression pathways (TGF-β, Wnt signaling, angiogenesis/BTB)",[6],alteration to major pathways

# Source: patent US20240358678A1, “METHODS AND COMPOSITIONS FOR ENHANCING CHEMOTHERAPEUTIC DRUG UPTAKE INTO BRAIN TUMORS” (Brown University, priority 2023, published 2024)
